Here are results for 22 molecules from US20260207565A1, “COMPOUNDS THAT INHIBIT PKMYT1” (Exelixis, Inc., priority 2022, published 2026).

In experiment [1] the test system is phosphorylation of CDK1 at Thr14 in HCC1806 cells. In words: Cell lysate AlphaLISA assay measuring inhibition of phosphorylation of CDK1 Thr14. It counts as cell-based. Conditions: Homo sapiens, HCC1806, 4 h, compounds incubated 4 hours, AlphaLISA SureFire Ultra CDK1 Thr14, read-out: Cellular IC50. How it is done: (§1) Biochemical IC50 values were determined via ADP-Glo™ assay. Cellular IC50 values were determined via AlphaLISA assay.
Cell lysate AlphaLISA® assay measuring inhibition of phosphorvlation of CDK1 Thr14. Inhibition of phosphorylation of CDK1 at Thr14 was determined using AlphaLISAn SureFire® Ultra™ Kit from Perkin Elmer (ALSU-PCDK1-A10K). HCC1806 cells were seeded at 2K cells per well (50 μl/well) in 384-well plates (Corning 3570) and stored overnight at 37° C. and 5% CO2. The following day, the compounds dissolved in DMSO were introduced to the cells and incubated for 4 hours at 37° C. and 5% CO2. The cells were then washed with PBS using Blue® Washer and 10 μl of lysis buffer containing protease inhibitor was added. The plate was placed on an orbital shaker (at 4° C.) for 30 minutes and stored overnight at −80° C. for complete lysing. The next day, the plates were thawed at room temperature for at least 30 min. Reagents were prepared in a dimmed light setting (<100 lumens). The assay was run by first adding 5 μl of the acceptor mix (reaction buffer 1: reaction buffer 2:activation buffer:acceptor beads 47:47:4:2), covering the plate with foil, shaking for 2 minutes, and incubating at RT for 60 minutes. The donor mix (dilution buffer:donor beads 47:3) was then added at 5 μl per well, placed on the shaker for 2 minutes and incubated at RT for 60 minutes before reading the plates on a PHERAstar® plate reader. The results were normalized to DMSO (0% Inhibition) and 3 μM of reference compound.

The target in the next experiment is T1, PKMYT1 (Homo sapiens, UniProt Q99640).
T1 construct: PKMYT1 (93 kD, full length, N-terminal GST tag from Signal Chem); GST (N); purchased Signal Chem
T1 sequence (Q99640 1-499): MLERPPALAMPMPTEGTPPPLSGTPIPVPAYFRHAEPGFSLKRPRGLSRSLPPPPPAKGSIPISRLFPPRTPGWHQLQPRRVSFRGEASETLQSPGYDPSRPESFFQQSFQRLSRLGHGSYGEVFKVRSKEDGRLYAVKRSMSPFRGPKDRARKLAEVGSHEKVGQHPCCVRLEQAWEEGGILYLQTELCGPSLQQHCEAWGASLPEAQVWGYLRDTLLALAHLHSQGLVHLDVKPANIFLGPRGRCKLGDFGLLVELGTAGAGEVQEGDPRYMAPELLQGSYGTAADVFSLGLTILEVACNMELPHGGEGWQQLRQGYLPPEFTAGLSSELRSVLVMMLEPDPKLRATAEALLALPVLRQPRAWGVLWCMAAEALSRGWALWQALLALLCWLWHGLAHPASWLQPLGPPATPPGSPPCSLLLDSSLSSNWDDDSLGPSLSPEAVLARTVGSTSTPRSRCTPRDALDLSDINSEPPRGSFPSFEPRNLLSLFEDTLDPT
The experiment can be described thus: ADP-Glo PKMYT1 ATP-depletion assay. The conditions noted are these: 50 nM PKMYT1, 13.3 nM CDK1, 88 μM ATP, 120 minutes at RT, read-out: Biochemical IC50. The method, then:
as §1
ADP-Glo™ PKMYT1 ATP-depletion assay. The activity of PKMYT1 is measured using a luciferase-luciferin based ATP detection reaction to quantify ATP depletion resulting from kinase-catalyzed phosphoryl transfer to CDK1 or autophosphorylation of PKMYT1. The ADP generated as a byproduct of the reaction is converted to ATP and used to drive a luciferase reaction. Test compounds were dissolved in DMSO and dispensed into Corning 3824 384-well plates prior to the experiment such that the final DMSO concentration was <10%. To the compounds was added 3 μL of PKMYT1 (93 kD, full length, N-terminal GST tag from Signal Chem). The reaction was started by the addition of 2 μL of CDK1 (58 kDa, full length, N-terminal GST tag from Signal Chem) and ATP in assay buffer (50 mM Hepes, 40 mM NaCl, 10 mM MgCl2, 1 mM DTT, 0.1 mg/mL BSA, 2.5 mM MnCl2). Final assay concentrations were 50 nM PKMYT1, 13.3 nM CDK1, and 88 μM ATP. Plates were centrifuged for 1 minute at 1000 RPM and incubated at RT for 120 minutes. After the incubation period, ADP-Glo™ reagent was added and the plates were incubated for another 40 minutes before finally adding the kinase detection reagent, 30 minutes after the addition, plates were placed on a PHERAstar® plate reader and read using the Luminescence Protocol, integration time at 0.5 seconds.
On the technique in general: ADP-Glo turns the ADP formed in a reaction into a luminescent signal.

`Cc1ccc(O)c(C)c1-c1c(N)c(C(N)=O)nc2c1c(C(N)=O)nn2C` (atropisomer, axis not shown; (M)) [Compound 74, (M)-5-Amino-4-(3-hydroxy-2,6-dimethylphenyl)-1-methyl-1H-pyrazolo[3,4-b]pyridine-3,6-dicarboxamide]: the IC50 (in experiment [1]; on PKMYT1) was less than 50 nM throughout.
Regarding `CCn1cc(C(N)=O)c2c(-c3c(C)ccc(O)c3C)c(N)c(C(N)=O)nc21` (atropisomer, axis not shown; (M)) [Compound 76, (M)-5-Amino-1-ethyl-4-(3-hydroxy-2,6-dimethylphenyl)-1H-pyrrolo[2,3-b]pyridine-3,6-dicarboxamide], the IC50 (in experiment [1]; at PKMYT1) was less than 50 nM in each case.
On to `Cc1c(O)cccc1-c1c(N)c(C(N)=O)nc2c1c(C#N)cn2-c1ncccc1F` (atropisomer, axis not shown; (M)) [Compound 78, (M)-5-Amino-3-cyano-1-(3-fluoropyridin-2-yl)-4-(3-hydroxy-2-methylphenyl)-1H-pyrrolo[2,3-b]pyridine-6-carboxamide], for which the IC50 (in experiment [1]; at PKMYT1) was less than 50 nM each time.
For the molecule `Cc1c(O)cccc1-c1c(N)c(C(N)=O)nc2c1c(-c1c[nH]nn1)cn2C` (atropisomer, axis not shown; (M)) [Compound 90, (M)-5-amino-4-(3-hydroxy-2-methylphenyl)-1-methyl-3-(1H-1,2,3-triazol-4-yl)-1H-pyrrolo[2,3-b]pyridine-6-carboxamide], the IC50 (in experiment [1]; on PKMYT1) was less than 50 nM in each case.
On to `CCn1cc(-c2cn[nH]c2)c2c(-c3cccc(O)c3C)c(N)c(C(N)=O)nc21` (atropisomer, axis not shown; (M)) [Compound 91, (M)-5-amino-1-ethyl-4-(3-hydroxy-2-methylphenyl)-3-(1H-pyrazol-4-yl)-1H-pyrrolo[2,3-b]pyridine-6-carboxamide], for which the half-inhibitory concentration (IC50) (in experiment [1]; on PKMYT1) was less than 50 nM throughout.
With `CCn1cc(C#N)c2c(-c3cccc(O)c3C)c(N)c(C(N)=O)nc21` (atropisomer, axis not shown; (M)) [Compound 92, (M)-5-amino-3-cyano-1-ethyl-4-(3-hydroxy-2-methylphenyl)-1H-pyrrolo[2,3-b]pyridine-6-carboxamide], the concentration for half-maximal inhibition (IC50) (in experiment [1]; at PKMYT1) was less than 50 nM throughout.
On to `CCn1cc(C(N)=O)c2c(-c3cccc(O)c3C)c(N)c(C(N)=O)nc21` (atropisomer, axis not shown; (M)) [Compound 96, (M)-5-amino-1-ethyl-4-(3-hydroxy-2-methylphenyl)-1H-pyrrolo[2,3-b]pyridine-3,6-dicarboxamide], for which the IC50 (in experiment [1]; at PKMYT1) was less than 50 nM in each case.
In the case of `Cc1ccc(O)c(C)c1-c1cc(C(N)=O)nc2c1c(C#N)cn2-c1ncccc1F` (atropisomer, axis not shown; (P)) [Compound 68, (P)-3-Cyano-1-(3-fluoropyridin-2-yl)-4-(3-hydroxy-2,6-dimethylphenyl)-1H-pyrrolo[2,3-b]pyridine-6-carboxamide], the IC50 (in experiment [1]; on PKMYT1) was less than 50 nM throughout.
As for `Cc1ccc(O)c(C)c1-c1c(N)c(C(N)=O)cc2c1ncn2C(F)(F)F` (atropisomer, axis not shown; (P)) [Compound 70, (P)-5-Amino-4-(3-hydroxy-2,6-dimethylphenyl)-1-(trifluoromethyl)-1H-benzo[d]imidazole-6-carboxamide], the IC50 (in experiment [1]; at PKMYT1) was less than 50 nM each time.
In the case of `CCn1cc(-c2ncon2)c2c(-c3c(C)ccc(O)c3C)cc(C(N)=O)nc21` (atropisomer, axis not shown; (P)) [Compound 71, (P)-1-Ethyl-4-(3-hydroxy-2,6-dimethylphenyl)-3-(1,2,4-oxadiazol-3-yl)-1H-pyrrolo[2,3-b]pyridine-6-carboxamide], the IC50 (in experiment [1]; on PKMYT1) was less than 50 nM each time.
In the case of `Cc1ccc(O)c(C)c1-c1c(N)c(C(N)=O)nc2c1ncn2C(F)F` (atropisomer, axis not shown; (P)) [Compound 72, (P)-6-Amino-3-(difluoromethyl)-7-(3-hydroxy-2,6-dimethylphenyl)-3H-imidazo[4,5-b]pyridine-5-carboxamide], the IC50 (in experiment [1]; at PKMYT1) was less than 50 nM throughout.
Consider `Cc1ccc(O)c(C)c1-c1c(N)c(C(N)=O)nc2c1ncn2C1CC(F)(F)C1` (atropisomer, axis not shown; (P)) [Compound 75, (P)-6-amino-3-(3,3-difluorocyclobutyl)-7-(3-hydroxy-2,6-dimethylphenyl)-3H-imidazo[4,5-b]pyridine-5-carboxamide], for which the IC50 (in experiment [1]; on PKMYT1) was less than 50 nM throughout.
For the molecule `CCn1cnc2c(-c3c(C)ccc(O)c3C)c(N)c(C(N)=O)nc21` (atropisomer, axis not shown; (P)) [Compound 81, (P)-6-amino-3-ethyl-7-(3-hydroxy-2,6-dimethylphenyl)-3H-imidazo[4,5-b]pyridine-5-carboxamide], the IC50 (in experiment [1]; at PKMYT1) was less than 50 nM in each case.
Turning to `Cc1ccc(O)c(C)c1-c1c(N)c(C(N)=O)cc2c1ncn2C(F)F` (atropisomer, axis not shown; (P)) [Compound 85, (P)-5-amino-1-(difluoromethyl)-4-(3-hydroxy-2,6-dimethylphenyl)-1H-benzo[d]imidazole-6-carboxamide], the IC50 (in experiment [1]; on PKMYT1) was less than 50 nM throughout.
With `Cc1ccc(O)c(C)c1-c1c(N)c(C(N)=O)nc2c1ncn2CC(F)(F)F` (atropisomer, axis not shown; (P)) [Compound 86, (P)-6-amino-7-(3-hydroxy-2,6-dimethylphenyl)-3-(2,2,2-trifluoroethyl)-3H-imidazo[4,5-b]pyridine-5-carboxamide], the IC50 (in experiment [1]; on PKMYT1) was less than 50 nM in each case.
For the molecule `Cc1ccc(O)c(C)c1-c1c(N)c(C(N)=O)cc2c1ncn2-c1ncccc1F` (atropisomer, axis not shown; (P)) [Compound 87, (P)-5-amino-1-(3-fluoropyridin-2-yl)-4-(3-hydroxy-2,6-dimethylphenyl)-1H-benzo[d]imidazole-6-carboxamide], the IC50 (in experiment [1]; at PKMYT1) was less than 50 nM in each case.
Take `Cc1ccc(O)c(C)c1-c1cc(C(N)=O)nc2c1c(Cl)cn2C` (single isomer, unassigned) [Compound 31]: the IC50 (commonly the concentration needed to halve the response being measured) at PKMYT1 was not below 5000 nM.
Regarding `Cc1ccc(O)c(C)c1-c1cc(C(N)=O)nc2c1c(Cl)cn2C` (single isomer, unassigned) [Compound 32], the IC50 at PKMYT1 lay in the range of 50 to 500 nM.
The same measure, in the same setting: to `Cc1ccc(O)c(C)c1-c1cc(C(N)=O)nc2c1c(C#N)c(C)n2C` (single isomer, unassigned) [Compound 33] belongs 1000 to 5000 nM.
As to `Cc1ccc(O)c(C)c1-c1cc(C(N)=O)nc2c1c(C#N)c(C)n2C` (single isomer, unassigned) [Compound 34], on PKMYT1, the IC50 is less than 50 nM.
Same read-out and setting: to `Cc1c(Cl)cncc1-c1c(N)c(C(N)=O)nc2c1c(C#N)cn2C` [Compound 10] belongs 50 to 500 nM.
For the molecule `Cc1c(Cl)cncc1-c1c(N)c(C(N)=O)nc2c1c(C#N)cn2C` [Compound 11], the IC50 on PKMYT1 was less than 50 nM.
